{"source": "patent US20240024216A1", "about": "“METHODS AND MATERIALS FOR TREATING HAIR LOSS” (The Penn State Research Foundation, priority 2021, published 2024)", "test_system": "C57BL/6 mice", "test": "Full thickness excisional splinted wound model: wound closure and histomorphometry", "assay_type": "in vivo", "settings": "for wound closure: daily systemic 4-AP", "description": "The effect of 4-AP in promoting cutaneous wound healing and tissue regeneration was investigated using a full thickness excisional wound model (FIG. 3A). Excisional wounds (5 mm) were splinted with silicone rings to prevent wound contraction, in 10-wk-old male C57BL/6 mice, which were then randomized and treated with either saline or systemic 4-AP (dosage to correspond to human dosage) daily for 14 days. Wounds were monitored by digital imaging for morphometry, percentage of wound healing, and tissue regeneration on days 3, 5, 7, 9, 12 and 14 post wound (PWD) (when tissue was harvested).\nMale C57BL/6 (10 week) mice were purchased from the Jackson Laboratory (Bar Harbor, ME USA). Mice were anesthetized by intraperitoneal injection of ketamine (60 mg/kg) and xylazine (4 mg/kg) body weight, and the dorsal skin hair was removed using mechanical shaver and then, applied the hair removal cream. Skin was disinfected using 70% ethanol and betadine for 3 times. The dorsal skin was folded and raised cranially and caudally at midline using index fingers and thumbs, and place the animal in a lateral position and two 5-mm wounds created in their dorsal skin using sterile biopsy punch. A 5-mm-diameter silicone ring was then placed and sutured around the each wound to restrict contraction. After wound creation and sutured silicone ring, wound site was photographed, and wound surface was covered with a Tegaderm (3M) sterile transparent dressing. After surgery, mice was administered SR Buprenorphine (0.05 mg/kg) as a post-operative analgesia. The mice were randomized into the following two groups: a control group (vehicle control), which received 100 μl of saline, and a 4-AP group. In total […]/mouse/daily 4-AP in 90-110 μl of saline intraperitoneally (IP) was administered until day 14 post wound. Digital imaging of the wound was used was determined for each wound healing by quantification of wound area based on digital pictures taken from day 0 to day 14 (days 0, 3, 5, 7, 9, 12 and 14) post-surgery (FIG. 3A). Wound areas were measured in pixel using ImageJ-1.53e software (National Institutes of Health, USA) and normalized/corrected each wound area with reference scale and wound healing expressed as percentage with respect to day 0 wound, using following formula.\nAt the day 14 wound skin sample were collected after mice were euthanized using CO2 and skin samples were excised, either flash frozen or fixed in a buffered 4% formaldehyde solution at 4° C., overnight for samples to be embedded in paraffin and the wound skin paraffin blocks were processed into serially cut into […] sections on a Microtome (Leica RM2235, Germany). The wound skin sections were used for morphometric analysis and immunofluorescence staining. […] sectioned wound skin samples of day 14 were sections were deparaffinised using xylene and ethyl alcohol and stained with hematoxylin and eosin (H&E). To evaluate the epidermis thickness, and wound induced hair follicle formation, four randomly fields of each H&E-stained sections were imaged under a light microscope (Olympus BX53, Olympus, Tokyo, Japan) at 1000 magnification. The values of each mice were averaged, and then groups were compared. To measure the wound induced hair follicles, similar to above procedure, the number of hair follicles at dermis were counted and then average value calculated for each group. To understand the collagen formation, maturation and deposition Masson's trichome analysis were performed as per manufacture instructions (Sigma-Aldrich, Catalog No.: HT15-1KT).", "data": [{"compound": "Nc1ccncc1", "note": "[4-AP, 4-aminopyridine]", "values": [{"measurement": "re-epithelialization of wound", "setting": "by day 14", "value": "completely re-epithelialized"}, {"measurement": "wound closure", "setting": "day 3 post wound", "value": "22.35±0.30", "unit": "%"}, {"measurement": "collagen deposition in dermis (Masson's Trichrome)", "setting": "day 14, compared to saline", "value": "elevated collagen deposition"}, {"measurement": "fold increase in WIHN", "setting": "day 14, vs saline-treated mice", "value": 1.8, "unit": "fold"}, {"measurement": "wound closure", "setting": "day 14 post wound", "value": "98.24±0.10", "unit": "%"}, {"measurement": "thickness of newly formed epidermis (H&E)", "setting": "day 14 wound tissue", "value": "29.7 ± 1.3", "unit": "µm"}, {"measurement": "mean number of hair follicles (wound-induced hair neogenesis)", "setting": "day 14 wound tissue, H&E", "value": 45}]}]}
